Test [1] has as its target T1, hCB1R (Homo sapiens, UniProt P21554). Briefly: HitHunter cAMP assay, inhibition of forskolin-stimulated cAMP. It is filed as cell-based. Conditions: 10 µM FSK, 90 min, 37 °C; agonism mode without CP55,940; allosteric ago-PAM.
The target in test [2] is T1, hCB1R. Briefly: PathHunter βarrestin2 recruitment assay. It is filed as cell-based. Conditions: 90 min, 37 °C; agonism mode without CP55,940; allosteric ago-PAM. A general note: Arrestin recruitment assays detect the binding of arrestin to an activated receptor.

T1 sequence (P21554 whole entry): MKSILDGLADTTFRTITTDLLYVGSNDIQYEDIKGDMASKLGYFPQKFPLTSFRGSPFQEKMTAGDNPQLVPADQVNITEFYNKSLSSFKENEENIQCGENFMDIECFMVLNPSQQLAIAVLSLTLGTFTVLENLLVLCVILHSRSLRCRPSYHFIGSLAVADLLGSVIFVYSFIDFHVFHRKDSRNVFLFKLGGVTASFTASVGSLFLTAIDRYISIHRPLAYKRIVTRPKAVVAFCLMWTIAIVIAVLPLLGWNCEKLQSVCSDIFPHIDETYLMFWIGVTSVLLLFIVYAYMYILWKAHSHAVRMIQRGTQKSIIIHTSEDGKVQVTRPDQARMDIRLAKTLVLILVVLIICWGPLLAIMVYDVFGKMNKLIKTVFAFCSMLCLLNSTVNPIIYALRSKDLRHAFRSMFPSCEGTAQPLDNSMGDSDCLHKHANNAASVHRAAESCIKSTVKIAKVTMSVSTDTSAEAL

By EC50 is commonly meant the concentration that produces a half-maximal response. A lower EC50 goes with a more potent agent. As to `O=[N+]([O-])CC(c1ccccc1F)c1c(-c2cccc(F)c2)[nH]c2c(F)cccc12` (stereo not shown) [GAT593], the figures for the concentration giving a half-maximal response (EC50) on hCB1R [1] and at hCB1R [2] were 45 nM and > 10000 nM, respectively.
Take GAT591: the concentration for a half-maximal effect (EC50) at hCB1R [1] is 4.1 nM; on hCB1R [2], 1300 nM.

These data come from paper PMC8804275 (IBRO Neuroscience Reports, 2022).
